Data taken from patent publication US8940760B2, “Pyrazolo pyridine derivatives as NADPH oxidase inhibitors” (Genkyotex SA, priority 2008, dated 2015).

Tests used:
NOX activities [1] = experiment: H2DCF-DA fluorescence in TGF-β stimulated HUVEC; format: cell-based, human; settings: HUVEC stimulated with TGF-β, 'usually'
Method: HUVEC are cultured in endothelial basal medium supplemented with hydrocortisone (1 μg/mL, CalbioChem), bovine brain extract (12 μg/mL), gentamicin (50 μg/mL, CalbioChem), amphotericin B (50 ng/mL, CalBioChem EGF (10 ng/mL, and 10% FCS until the fourth passage. When the fifth passage was started, cells were cultured with a lower concentration of FCS (2%) in the absence of EGF, if not indicated otherwise. All experiments were done with cells of the fifth passage. The cells were incubated with OxLDL (oxidized low-density lipoprotein) or its buffer as control for 24 h, before detection of O2^− formation.
HUVEC were plated on coverslips and made quiescent overnight in 0.5% BSA before stimulation with TGF-β. Cells were loaded for 10 minutes with 5 μM CM-H2DCFDA in phenol-red-free medium in the dark and then treated with TGF-β (R&D Systems) in the presence or absence of compounds according to the invention. Cells were then visualized by immunofluorescence microscopy after fixation and staining of the nuclei with DAPI or examined live using confocal microscopy. DCF fluorescence was visualized at an excitation wavelength of 488 nm and emission at 515 to 540 nm. […] For calculation, the absorbance at […] was normalized to absorbance at […] for each individual well. […] NOX activities were expressed as % of the activity in control cells. […]

NOX activities [2] = experiment: Nitroblue tetrazolium (NBT) test of intracellular and extracellular superoxide in cells; format: cell-based; settings: DPI at final concentration of 10 μM, 'usually'
Method: Intracellular and extracellular superoxide was measured by a colorimetric technique using a quantitative nitroblue tetrazolium (NBT) test. SOD-inhibitable conversion of NBT to formazan, a fine blue precipitate, in the presence of superoxide anion was measured using Fluostar Optima spectrometer (BMG labtech). Following incubation with appropriate stimuli, cells were trypsinized (1× Trypsin-EDTA), collected by centrifugation, and washed with PBS to remove medium. 5×10^5 cells were plated on 48-well plates and incubated in Hank's balanced salt solution containing 0.5 mg/mL NBT with or without 800 U/mL SOD in the presence or absence of compounds according to the invention. As a control, DPI was included at a final concentration of 10 μM. After 2.5 h, cells were fixed and washed with methanol to remove non reduced NBT. The reduced formazan was then dissolved in 230 μl of 2M potassium hydroxide and in 280 μl of dimethylsulfoxide. The absorption was measured at 630 nm. For calculation, the absorbance at 630 nm was normalized for each individual well. The mean of the four blank values was substracted from each corrected value for each time point. NOX activities were expressed as % of the activity in control cells. Residual activity of DPI-treated cells was usually <10%.

NOX activities [3] = experiment: Chemiluminescence (luminol) measurement of ROS in cells; format: cell-based; settings: 'usually'
Method: ROS was measured using the chemiluminescent probe luminol. Cells were cultured and plated as for Amplex Red except that the Amplex Red agent was replaced by 10 μg/mL luminol (Sigma 09235). Light emission was recorded continuously at 37° C. for 60 minutes using the luminescence function of the FluoStar Optima fluorescent plate reader. The mean of the four blank values was substracted from each corrected value for each time point. NOX activities were expressed as % of the activity in control cells. Residual activity of DPI-treated cells was usually <10%.

NOX activity = experiment: Amplex Red measurement of extracellular hydrogen peroxide (NOX activity) in DMSO-differentiated HL60 cells; format: cell-based, human; settings: DPI at final concentration of 10 μM, 'usually'
Method: Human acute myeloid leukemia cell line HL-60 was cultured in RPMI 1640 (Invitrogen) supplemented with 10% heat-inactivated calf serum, 2 mM glutamine, 100 U/mL penicillin (Sigma), and 100 μg streptomycin (Sigma) at 37° C. under a humidified atmosphere of 5% CO2. HL60 differentiation to the neutrophil phenotype was triggered by adding Me2SO (final concentration 1.25% v/v for 6 days) to the culture medium.
Extracellular hydrogen peroxide was measured using Amplex UltraRed (Molecular Probes). Cells were trypsinized (1× Trypsin-EDTA), collected by centrifugation, and resuspended in HBSS supplemented with 1% glucose. Cells were seeded into black 96-well plates at a density of 50,000 cells in 200 μl testing buffer (HBSS 1% glucose containing 0.005 U/mL horseradish peroxidase (Roche) and 50 μM Amplex Red in the presence or absence of compounds according to the invention. As a control, DPI was included at a final concentration of 10 μM. The plates were placed in the fluorescent Optima Fluorescent plate reader and kept at 37° C. during 20 min. Fluorescence was measured for 15 min with excitation and emission wavelengths of 544 nm and 590 nm respectively. NOX activities were expressed as % of the activity in control cells. Residual activity of DPI-treated cells was usually <10%.

Measured: Residual activity of DPI-treated cells (NOX activity as % of control cells)

c1ccc([I+]c2ccccc2)cc1 [DPI, Diphenyl-iodonium]
< 10%: all assays above
